Measured values from BindingDB's records for patent US20240294551 (Amgen, 2024).
pIC50: −log10 of the molar value.

What was measured:
GTPase KRas [G12D] = GTPase KRas [G12D] (Homo sapiens, UniProt P01116, G12D); experiment: TR-FRET Assay
Description: Compounds of interest were prepared in a dose-response titration in DMSO, and 80 nL were added via Labcyte Echo to each well of a 384-well plate (Perkin Elmer 6008280). The His-tagged KRAS G12D protein (Amgen) was diluted to 20 nM in Assay Buffer (20 mM HEPES, pH 7.4, 10 mM MgCl2, 50 mM NaCl, 0.1% BSA, 0.01% Tween-20, 10 μM GDP) and 2 μL was added to the appropriate wells of the 384-well plate. The plate was incubated for 30 minutes at room temperature. Biotinylated KRPep-2d substrate (Amgen) was diluted to 20 nM in Assay Buffer and 2 μL was added to all wells and incubated for 1 hour at room temperature. Detection Reagent (0.4 nM LANCE Eu-W1024 Anti-6×His (Perkin Elmer AD0401), 5 nM streptavidin-d2 (Cisbio 610SADLA)) was prepared in Assay Buffer, then 4 μL was added to the plate and incubated for 1 hour at room temperature. Plates were read using PerkinElmer EnVision (ex: 320 nm, em1: 665 nm, em2: 615 nm) and em1/em2 data was used to generate curve fits using a 4-parameter logistic model to calculate IC50 values.

GTPase KRas [G12D,C118A] = GTPase KRas [G12D,C118A] (Homo sapiens, UniProt P01116, C118A/G12D); experiment: Coupled Nucleotide Exchange Assay
Description: Following compound pre-incubation, purified SOS protein (aa 564-1049) and GTP (Roche 10106399001) were added to the assay wells and incubated for an additional 30 min. To determine the extent of inhibition of SOS-mediated nucleotide exchange, purified GST-tagged cRAF (aa 1-149), nickel chelate AlphaLISA acceptor beads (PerkinElmer AL108R), and AlphaScreen glutathione donor beads (PerkinElmer 6765302) were added to the assay wells and incubated for 10 minutes. The assay plates were then read on a PerkinElmer EnVision Multilabel Reader, using AlphaScreen technology, and data were analyzed using a 4-parameter logistic model to calculate IC50 values.

Sequence of GTPase KRas [G12D,C118A] (P01116 whole entry G12D/C118A, looked up, the tested form may be a part): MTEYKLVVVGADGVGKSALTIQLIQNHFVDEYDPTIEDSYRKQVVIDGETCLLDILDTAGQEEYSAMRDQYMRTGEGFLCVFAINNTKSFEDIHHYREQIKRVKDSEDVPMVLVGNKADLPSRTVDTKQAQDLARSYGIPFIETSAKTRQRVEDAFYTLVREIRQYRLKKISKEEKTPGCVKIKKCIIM
Sequence of GTPase KRas [G12D] (P01116 whole entry G12D): as the sequence (P01116 whole entry G12D/C118A, looked up, the tested form may be a part) above, with A118C counted along it

Structure (SMILES) | pIC50 (GTPase KRas [G12D]) | pIC50 (GTPase KRas [G12D,C118A])
Fc1c2ncc3c(nc(OC[C@@]45CCCN4C[C@H](F)C5)nc13)N1CCC[C@@H](CSCCCCc3c(Cl)cc4[nH]ncc4c3-2)C1 [US20240294551, Example 143] | 8.52 | 8.70
Fc1c2ncc3c(nc(OC[C@@]45CCCN4C[C@H](F)C5)nc13)N1CCC[C@H](C1)c1coc(n1)CCCc1c(Cl)cc3[nH]ncc3c1-2 [US20240294551, Example 157] | 8.70 | 9.00
O[C@@H]1CCOCCc2c(Cl)cc3[nH]ncc3c2-c2ncc3c(nc(OC[C@@]45CCCN4C[C@H](F)C5)nc3c2F)N2CCC[C@@H]1C2 [US20240294551, Example 404] | 8.00 | 8.22

Continued, values first:

pIC50 (GTPase KRas [G12D]) | pIC50 (GTPase KRas [G12D,C118A]) | Structure (SMILES)
7.70 | 7.89 | Cc1cc2[nH]ncc2c2c1CCCOC(=O)N1CC[C@@H]3CCN(C[C@@H]31)c1nc(OC[C@@]34CCCN3C[C@H](F)C4)nc3c(F)c-2ncc13 (mixture of isomers) [US20240294551, Example 75]
8.52 | 8.70 | Cc1cc2[nH]ncc2c2c1CCCOC(=O)O[C@@H]1COCCN(C1)c1nc(OC[C@@]34CCCN3C[C@H](F)C4)nc3c(F)c-2c(F)cc13 [US20240294551, Example 102]
8.40 | 8.70 | Cc1cc2[nH]ncc2c2c1CCCOC(=O)O[C@@H]1COCCN(C1)c1nc(OC[C@@]34CCCN3C[C@H](F)C4)nc3c(F)c-2ccc13 [US20240294551, Example 192]
8.40 | 8.70 | CN(C)CC1(COc2nc3c4cnc(c(F)c4n2)-c2c(c(Cl)cc4[nH]ncc24)CCCOC(=O)O[C@@H]2COCCN3C2)CC1 [US20240294551, Example 195]
8.30 | 9.00 | Fc1c2ncc3c(nc(OC[C@@]45CCCN4C[C@H](F)C5)nc13)N1CCOC[C@H](C1)c1noc(n1)CCCc1c(Cl)cc3[nH]ncc3c1-2 [US20240294551, Example 381]
